Data published in patent EP0843554B1, “ASCORBYL-PHOSPHORYL-CHOLESTEROL” (AVON PRODUCTS, INC., priority 1996, dated 1997).

System: cultured human skin fibroblasts
Assay: [^3H]-Proline Incorporation Assay (collagen biosynthesis)
Format: cell-based
Conditions: fibroblasts incubated with 11.3, 22.5 and 45 µg/ml for 48 hours; radioactive counts of newly synthesized [^3H]-hydroxyproline; numbers only in a chart image
Procedure: An art-recognized [^3H]-Proline Incorporation Assay was performed with different doses of 3'-(L-ascorbyl-2-phosphoryl)-cholesterol. Juva, Anal. Biochem., Vol. 15, pages 77-83 (1966); Booth, Biochim. Biophys. Acta, Vol. 675, pages 117-122 (1981).
Fibroblasts were incubated with 0 µg/ml, 11.3 µg/ml, 22.5 µg/ml and 45 µg/ml of 3'-(L-ascorbyl-2-phosphoryl)-cholesterol for a total of 48 hours. After the first 24 hours [^3H]-labeled proline was added to the culture. Following the second 24 hour period the cells were harvested and prepared for the collagen biosynthesis assay.
Protease inhibitors were added to prevent degradation of collagen and other proteins. The cell layer was scraped into a solution containing 0.4 M NaCl and 0.01 M Tris (pH 7.5). Extracts were sonicated to disrupt cell membranes. Separate volumes of the cell-containing solution (1 ml each) were dialyzed overnight against several changes of deionised water. The retentate was removed from dialysis and hydrolyzed in 6 N hydrochloric acid at 120°C overnight. The assay was performed using an oxidation process with 2 M chloramine-T. Samples were analyzed for radioactive counts, which represent the amount of newly synthesized [^3H]-hydroxyproline -- an index for new collagen synthesis.

CC(C)CCC[C@@H](C)[C@H]1CC[C@H]2[C@@H]3CC=C4C[C@@H](OP(=O)(O)OC5=C(O)[C@@H]([C@@H](O)CO)OC5=O)CC[C@]4(C)[C@H]3CC[C@]12C [3'-(L-ascorbyl-2-phosphoryl)-cholesterol]
production of new collagen: increased production of new collagen by human skin fibroblasts in a dose-dependent manner
